Experiment [1] has as its target T1, ALK1 (wildtype full-length ALK1 receptor) (Homo sapiens, UniProt P37023).
T1 construct: expression vector for wildtype full-length ALK1 receptor; expressed in transfected cells; host or cells: HepG2 (ATCC HB-8065), transient transfection with ALK1wt in pcDNA3.1
In words: ALK1 transactivation assay (ID1-promoter luciferase reporter in transfected HepG2 cells). It is filed as cell-based. As to conditions: ID1-luc reporter, 18 h, read-out: Assay 2 (ALK1 transactivation assay IC50 class). From the text:
Biological Assay 2: ALK1 Transactivation Assay
Herein HepG2 cell-cultures were transiently transfected by known techniques with an ALK1 plasmid (expression vector for wildtype full-length ALK1 receptor) and ID1 reporter plasmid containing 1.3 kB (−1370 to +86) of the ID1-promoter upstream of a luciferase reporter gene. ID1 is a known target gene of ALK1 and therefore gets transactivated by cotransfection with the ALK1 receptor. The specific transactivation is quantified via relative light units (RLU) which are detected in dependence of luciferase expression. Therefore a commercially available detection kit which contains the luciferase substrate luciferine was used.
HepG2 cells, ATCC HB-8065
96well plate polypropylene for compound dilution in DMSO
DMEM Ham's F12 (Biochrom #F4815) with 10% FCS after dialysis, 1% PenStrep and 200 mM Glutamine
steadyliteHTS (Perkin Elmer# 6016981)
Day 1: Seeding of Cells on 96-Well Plates
HepG2 cells are seeded on 96-well plates at a density of 7000 cells/ well in DMEM/HamsF12+5% FCS (+1% P/S, +1% Gln).
Day 2: Transfection of Cells
200 ng DNA: 100 ng ID1-luc (in pGL3basic, Promega)+5 ng ALK1wt (in pcDNA3.1)+95 ng pcDNA3.1 (empty vector, Invitogen)
Fugene and OptiMEM are incubated for 5 min at RT. This mixture is incubated with the DNA for 15 min at RT.
Afterwards, the plate is incubated under shaking conditions at room temperature (RT) for 1 h. After 4 hours at 37° C. the supernatants are drawn off by suction and the wells are replaced with medium (100 μl/well) containing low serum (0.2% FCS) and test substances.
Plates are incubated for further 18 h at 37° C.
100 μl luciferase substrate (steadyliteHTS, Packard) are added per well and plates are measured after 10 minutes in a luminometer (e.g. Viktor luminometer, Perkin Elmer). Luciferase activity is quantified by relative light units (RLU).
Calculation of IC50: ALK1wt−DMSO Control (without ALK1)=100% Substance(+ALK1wt)−DMSO control (without ALK1)=x % IC50=50% inhibition of ALK1 transactivation activity Biological data are presented below: Biological assay 1: ALK1-Kinase Flashplate-Assay

In experiment [2] the target is T2, human recombinant ALK1 (GST fused to ALK1 intracellular domain [His142-Gln503]) (Homo sapiens, UniProt P37023).
T2 construct: GST fused to ALK1 intracellular domain [His142-Gln503]; made in house
T2 sequence (P37023 142-503): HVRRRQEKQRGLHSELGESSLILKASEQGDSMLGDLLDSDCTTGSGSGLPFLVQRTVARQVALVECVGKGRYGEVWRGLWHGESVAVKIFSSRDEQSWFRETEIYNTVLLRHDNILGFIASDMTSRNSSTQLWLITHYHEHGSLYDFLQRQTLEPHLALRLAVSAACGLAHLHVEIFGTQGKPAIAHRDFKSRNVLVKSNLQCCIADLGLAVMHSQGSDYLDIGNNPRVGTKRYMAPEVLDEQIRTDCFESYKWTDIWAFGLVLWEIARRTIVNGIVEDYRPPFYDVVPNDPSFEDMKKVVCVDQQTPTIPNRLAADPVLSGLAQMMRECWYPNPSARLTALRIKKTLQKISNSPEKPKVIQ
The experiment can be described thus: ALK1-Kinase Flashplate-Assay. To be noted: 0.5 μM ATP, biotinylated α-casein substrate; read-out: Assay 1 (ALK1-Kinase Flashplate-Assay IC50 class). In kind it is biochemical. In short, it runs like this:
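Radiometric Flashplate assay at 20 °C: GST-ALK1 intracellular domain (5 ng/well) with 1 μM biotinylated bovine α-casein, 0.5 μM ATP plus [γ-33P]ATP in Tris pH 8.0, 1 mM MnCl2, 1% or 5% DMSO, 60 min. Normalised to no-inhibitor (0%) and 10 mM EDTA (100%); IC50 by 4-parameter fit.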

Structures can show the parent of a compound that is named as a salt.

Broadly, the IC50 is the midpoint of a concentration-inhibition curve.

T1 sequence (P37023 22-503): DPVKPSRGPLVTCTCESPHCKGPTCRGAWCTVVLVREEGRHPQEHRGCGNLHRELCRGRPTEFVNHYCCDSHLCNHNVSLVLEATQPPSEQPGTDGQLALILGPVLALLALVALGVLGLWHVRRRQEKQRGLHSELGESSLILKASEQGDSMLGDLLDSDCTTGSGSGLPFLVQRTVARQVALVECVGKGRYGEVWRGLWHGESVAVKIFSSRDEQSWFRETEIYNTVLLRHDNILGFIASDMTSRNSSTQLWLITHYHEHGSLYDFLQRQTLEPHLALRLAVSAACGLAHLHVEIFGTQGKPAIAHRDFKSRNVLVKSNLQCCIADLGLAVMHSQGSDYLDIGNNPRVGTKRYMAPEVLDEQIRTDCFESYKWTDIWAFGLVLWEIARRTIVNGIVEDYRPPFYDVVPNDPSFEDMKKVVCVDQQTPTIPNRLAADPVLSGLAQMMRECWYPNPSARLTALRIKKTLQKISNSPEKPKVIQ

`COc1cc(OC)cc(-c2cnn3ccc(Nc4ccc(N5CCOCC5)cc4)nc23)c1` [Example 127, [3-(3,5-Dimethoxy-phenyl)-pyrazolo[1,5-a]pyrimidin-5-yl]-(4-morpholin-4-yl-phenyl)-amine]: the figures for the IC50 in experiment [1] and in experiment [2] were < 10 µM and < 1 µM, respectively.

In the case of `COc1ccc(-c2cnn3ccc(Nc4ccc(N5CCOCC5)cc4)nc23)cn1` [Example 20, [3-(6-Methoxy-pyridin-3-yl)-pyrazolo[1,5-a]pyrimidin-5-yl]-(4-morpholin-4-yl-phenyl)-amine], the IC50 in experiment [1] is < 10 µM; in experiment [2], < 1 µM.

As for `COc1cc(-c2cnn3ccc(Nc4ccc(N5CCOCC5)cc4)nc23)cc(OC)c1OC` [Example 421, (4-Morpholin-4-yl-phenyl)-[3-(3,4,5-trimethoxy-phenyl)-pyrazolo[1,5-a]pyrimidin-5-yl]-amine], the IC50 in experiment [1] was < 10 µM; in experiment [2], < 1 µM.

Regarding `COc1cc(-c2cnn3ccc(Nc4ccccc4)nc23)cc(OC)c1OC` [Example 2, phenyl-[3-(3,4,5-trimethoxy-phenyl)-pyrazolo[1,5-a]pyrimidin-5-yl]-amine], the IC50 in experiment [1] was < 10 µM; in experiment [2], < 1 µM.

`COc1cc(-c2cnn3ccc(Nc4ccc(F)cc4)nc23)cc(OC)c1OC` [Example 3, (4-fluoro-phenyl)-[3-(3,4,5-trimethoxy-phenyl)-pyrazolo[1,5-a]pyrimidin-5-yl]-amine]: the IC50 in experiment [1] is < 10 µM; in experiment [2], < 1 µM.

In the case of `COc1cncc(-c2cnn3ccc(Nc4ccc(N5CCOCC5)cc4)nc23)c1` [Example 422, [3-(5-Methoxy-pyridin-3-yl)-pyrazolo[1,5-a]pyrimidin-5-yl]-(4-morpholin-4-yl-phenyl)-amine], the 50% inhibitory concentration (IC50) in experiment [1] was < 10 µM; in experiment [2], < 1 µM.

For `COc1cc(OC)cc(-c2cnn3ccc(NC4CCN(C)CC4)nc23)c1` [Example 10, [3-(3,5-Dimethoxy-phenyl)-pyrazolo[1,5-a]pyrimidin-5-yl]-(1-methyl-piperidin-4-yl)-amine], the half-maximal inhibitory concentration (IC50) in experiment [1] is < 10 µM; in experiment [2], < 1 µM.

As to `c1csc(-c2cnn3ccc(NC4CCNCC4)nc23)c1` [Example 495, Piperidin-4-yl-(3-thiophen-2-yl-pyrazolo[1,5-a]pyrimidin-5-yl)-amine bis TFA salt], the IC50 was < 10 µM in experiment [1] and < 1 µM in experiment [2].

`COc1cc(OC)cc(-c2cnn3ccc(Nc4ccc(N5CCOCC5)nc4)nc23)c1` [Example 30, [3-(3,5-Dimethoxy-phenyl)-pyrazolo[1,5-a]pyrimidin-5-yl]-(6-morpholin-4-yl-pyridin-3-yl)-amine]: the IC50 in experiment [1] is < 10 µM; in experiment [2], < 1 µM.

Turning to `COc1ccc(Nc2ccn3ncc(-c4ccc(OC)c(OC)c4)c3n2)cn1` [Example 465, [3-(3,4-Dimethoxy-phenyl)-pyrazolo[1,5-a]pyrimidin-5-yl]-(6-methoxy-pyridin-3-yl)-amine], the half-inhibitory concentration (IC50) is < 10 µM in experiment [1] and < 1 µM in experiment [2].

As to `COc1ccc(-c2cnn3ccc(Nc4ccc(C(C)C)cc4)nc23)cc1OC` [Example 37, [3-(3,4-Dimethoxy-phenyl)-pyrazolo[1,5-a]pyrimidin-5-yl]-(4-isopropyl-phenyl)-amine], the half-maximal inhibitory concentration (IC50) in experiment [2] fell in the range of 1 to 10 µM.

`N#Cc1ccc(-c2cnn3ccc(Nc4ccc(O)cc4)nc23)cc1` [Example 86, 4-[5-(4-Hydroxy-phenylamino)-pyrazolo[1,5-a]pyrimidin-3-yl]-benzonitrile]: the half-maximal inhibitory concentration (IC50) in experiment [2] lay in the range of 1 to 10 µM.

Turning to `OCc1cccc(-c2cnn3ccc(NC4CCC(O)CC4)nc23)c1` (stereo not shown) [Example 158, 4-[3-(3-Hydroxymethyl-phenyl)-pyrazolo[1,5-a]pyrimidin-5-ylamino]-cyclohexanol], the IC50 in experiment [2] is 1 to 10 µM.

Take `COc1cncc(-c2cnn3ccc(NC4CCC(O)CC4)nc23)c1` (stereo not shown) [Example 116, 4-[3-(5-Methoxy-pyridin-3-yl)-pyrazolo[1,5-a]pyrimidin-5-ylamino]-cyclohexanol]: the IC50 in experiment [2] is 1 to 10 µM.

As for `COc1ccc(Nc2ccn3ncc(-c4cccc(NS(C)(=O)=O)c4)c3n2)cn1` [Example 197, N-{3-[5-(6-Methoxy-pyridin-3-ylamino)-pyrazolo[1,5-a]pyrimidin-3-yl]-phenyl}-methanesulfonamide], the IC50 in experiment [2] was in the range of 1 to 10 µM.

In the case of `FC(F)(F)Oc1cccc(-c2cnn3ccc(Nc4ccc(N5CCOCC5)cc4)nc23)c1` [Example 129, (4-Morpholin-4-yl-phenyl)-[3-(3-trifluoromethoxy-phenyl)-pyrazolo[1,5-a]pyrimidin-5-yl]-amine], in experiment [2], the IC50 fell in the range of 1 to 10 µM.

On to `Clc1cccc(-c2cnn3ccc(NCc4ccncc4)nc23)c1` [Example 395, [3-(3-Chloro-phenyl)-pyrazolo[1,5-a]pyrimidin-5-yl]-pyridin-4-ylmethyl-amine], for which the IC50 in experiment [2] was < 1 µM.

As for `CC(=O)Nc1ccc(Nc2ccn3ncc(-c4cccc(N(C)C)c4)c3n2)cc1` [Example 331, N-{4-[3-(3-Dimethylamino-phenyl)-pyrazolo[1,5-a]pyrimidin-5-ylamino]-phenyl}-acetamide], the concentration for half-maximal inhibition (IC50) in experiment [2] is 1 to 10 µM.

For the compound `O=C(O)CCc1ccc(-c2cnn3ccc(Nc4ccc(O)cc4)nc23)cc1` [Example 83, 3-{4-[5-(4-Hydroxy-phenylamino)-pyrazolo[1,5-a]pyrimidin-3-yl]-phenyl}-propionic acid], the IC50 in experiment [2] fell in the range of 1 to 10 µM.

As for `Oc1ccc(-c2cnn3ccc(NCc4ccncc4)nc23)cc1` [Example 66, 4-{5-[(Pyridin-4-ylmethyl)-amino]-pyrazolo[1,5-a]pyrimidin-3-yl}-phenol], the IC50 in experiment [2] was < 1 µM.

For `FC(F)(F)c1cccc(-c2cnn3ccc(NCc4ccncc4)nc23)c1` [Example 397, Pyridin-4-ylmethyl-[3-(3-trifluoromethyl-phenyl)-pyrazolo[1,5-a]pyrimidin-5-yl]-amine], the half-maximal inhibitory concentration (IC50) in experiment [2] was in the range of 1 to 10 µM.

As for `c1csc(-c2cnn3ccc(NC4CCCCC4)nc23)c1` [Example 494, Cyclohexyl-(3-thiophen-2-yl-pyrazolo[1,5-a]pyrimidin-5-yl)-amine], the IC50 in experiment [2] lay in the range of 1 to 10 µM.

`NC(=O)c1cccc(-c2cnn3ccc(Nc4ccc(N5CCOCC5)cc4)nc23)c1` [Example 232, 3-[5-(4-Morpholin-4-yl-phenylamino)-pyrazolo[1,5-a]pyrimidin-3-yl]-benzamide]: the 50% inhibitory concentration (IC50) in experiment [2] is < 1 µM.

On to `COc1cc(Nc2ccn3ncc(-c4cccc(O)c4)c3n2)cc(OC)c1OC` [Example 138, 3-[5-(3,4,5-Trimethoxy-phenylamino)-pyrazolo[1,5-a]pyrimidin-3-yl]-phenol], for which, in experiment [2], the IC50 fell in the range of 1 to 10 µM.

As to `Nc1ccc(C(=O)Nc2ccc(Nc3ccn4ncc(-c5ccc(F)cc5)c4n3)cc2)cc1` [Example 400, 4-Amino-N-{4-[3-(4-fluoro-phenyl)-pyrazolo[1,5-a]pyrimidin-5-ylamino]-phenyl}-benzamide], the IC50 in experiment [2] is 1 to 10 µM.

Take `COc1ncc(-c2cnn3ccc(Nc4ccc(O)cc4)nc23)c(OC)n1` [Example 46, 4-[3-(2,4-Dimethoxy-pyrimidin-5-yl)-pyrazolo[1,5-a]pyrimidin-5-ylamino]-phenol]: the IC50 in experiment [2] was < 1 µM.

`COc1cccc(-c2cnn3ccc(Nc4ccc(O)cc4)nc23)c1` [Example 192, 4-[3-(3-Methoxy-phenyl)-pyrazolo[1,5-a]pyrimidin-5-ylamino]-phenol]: the IC50 in experiment [2] was < 1 µM.

Values taken from patent publication US20080039455A1, “PYRAZOLOPYRIMIDINES AND SALTS THEREOF, PHARMACEUTICAL COMPOSITIONS COMPRISING SAME, METHODS OF PREPARING SAME AND USES OF SAME” (priority 2006, published 2008).
